Experimental data taken from patent US20110039762A1, “TARGETED ANTIMICROBIAL MOIETIES” (C3 JIAN, INC., priority 2009, published 2011).
Entries after “also recorded” stand apart in the source; their conditions may differ.

Test system: microorganisms (e.g., bacteria, yeasts, fungi)
Assay: Targeting peptide binding to target microorganisms (Table 3)
Details: microorganism the targeting peptide binds; binding in aqueous buffers varied by peptide solubility, preferably 1x PBS

Row | Substance | Target(s)
1 | 1T-117 (GPGVVGPAPFSRLPAHALNL; Peptide with targeting and/or antimicrobial activity) [Peptide 1T-117] | S. mutans
2 | 1T-119 (SPATQKAPTRAQPSRAPVQDCGDGRPTAAPDDVERLSPR; Peptide with targeting and/or antimicrobial activity) [Peptide 1T-119] | S. gordonii; also recorded: S. mitis; also recorded: S. mutans; also recorded: S. oralis
3 | 1T-121 (FAKETGFGIGGAQEGWWIIADIYGPNPF; Peptide with targeting and/or antimicrobial activity) [Peptide 1T-121] | S. gordonii; also recorded: S. mitis; also recorded: S. mutans; also recorded: S. oralis; also recorded: S. salivarious; also recorded: S. sanguinis
4 | 1T-122 (GAIPDPVTHRVDWEEDHQTRPSR; Peptide with targeting and/or antimicrobial activity) [Peptide 1T-122] | S. mitis
5 | 1T-123 (LVRRNAVAGRSDGLAGAEQLDLVRLQGVL; Peptide with targeting and/or antimicrobial activity) [Peptide 1T-123] | S. gordonii
6 | 1T-124 (LFDERNKIA; Peptide with targeting and/or antimicrobial activity) [Peptide 1T-124] | S. mitis; also recorded: S. mutans; also recorded: S. oralis
7 | 1T-125 (DAITGGNPPLSDTDGLRP; Peptide with targeting and/or antimicrobial activity) [Peptide 1T-125] | S. epidermidis; also recorded: S. gordonii; also recorded: S. mutans; also recorded: S. oralis
8 | 1T-126 (QGLARPVLRRIPL; Peptide with targeting and/or antimicrobial activity) [Peptide 1T-126] | S. gordonii; also recorded: S. mitis; also recorded: S. mutans
9 | 1T-139 (AVAGAAVGALLGNDARSTAVGAAIGGALGAGAGELTKNK; Peptide with targeting and/or antimicrobial activity) [Peptide 1T-139] | A. naeslundii; also recorded: S. gordonii; also recorded: S. mitis; also recorded: S. mutans; also recorded: S. oralis
10 | 1T-141 (KKFIILLFILVQGLIFSATKTLSDIIAL; Peptide with targeting and/or antimicrobial activity) [Peptide 1T-141] | F. nucleatum; also recorded: P. gingivalis; also recorded: S. epidermidis; also recorded: S. gordonii; also recorded: S. mitis; also recorded: S. mutans; also recorded: S. oralis; also recorded: S. sanguinis
11 | 1T-145 (VEAGKRNISLENIEKISKGLGISISELFKYIEEGEDKIG; Peptide with targeting and/or antimicrobial activity) [Peptide 1T-145] | S. mitis; also recorded: S. mutans; also recorded: S. oralis
12 | 1T-154 (YFSFLEIVGMARR; Peptide with targeting and/or antimicrobial activity) [Peptide 1T-154] | P. gingivalis
13 | 1T-159 (IFSLHHFALICSEMGTFAVSKRAKYKWEVL; Peptide with targeting and/or antimicrobial activity) [Peptide 1T-159] | P. gingivalis
14 | 1T-170 (AYGKVFSMDIMLSENDKLIVLRISHHSAWH; Peptide with targeting and/or antimicrobial activity) [Peptide 1T-170] | P. gingivalis
15 | 1T-177 (GTNVPTQILGYSREERFDYEPAPEQR; Peptide with targeting and/or antimicrobial activity) [Peptide 1T-177] | P. gingivalis; also recorded: S. gordonii; also recorded: S. mitis; also recorded: S. mutans; also recorded: S. oralis; also recorded: S. salivarious; also recorded: S. sanguinis
16 | 1T-188 (HRKDVYKK; Peptide with targeting and/or antimicrobial activity) [Peptide 1T-188] | S. sanguinis
17 | 1T-192 (ILVLLALQVELDSKFQY; Peptide with targeting and/or antimicrobial activity) [Peptide 1T-192] | S. sanguinis
18 | 1T-193 (LMIFDKHANLKYKYGNRSFGVEAIM; Peptide with targeting and/or antimicrobial activity) [Peptide 1T-193] | S. sanguinis
19 | 1T-195 (AASGFTYCASNGVWHPY; Peptide with targeting and/or antimicrobial activity) [Peptide 1T-195] | S. mutans
20 | 1T-196 (KPEKEKLDTNTLMKVVNKALSLFDRLLIKFGA; Peptide with targeting and/or antimicrobial activity) [Peptide 1T-196] | F. nucleatum; also recorded: S. sanguinis
21 | 1T-198 (MPVSKKRYMLSSAYATALGICYGQVATDEKESEITAIPDLLDYLSVEEYLL; Peptide with targeting and/or antimicrobial activity) [Peptide 1T-198] | P. gingivalis; also recorded: S. epidermidis; also recorded: S. gordonii; also recorded: S. mitis; also recorded: S. mutans; also recorded: S. oralis; also recorded: S. sanguinis
22 | 1T-199 (RAGRIKKLSQKEAEPFEN; Peptide with targeting and/or antimicrobial activity) [Peptide 1T-199] | S. sanguinis

Row | Substance | Target(s)
23 | 1T-201 (KRKHENVIVAEEMRVIKN; Peptide with targeting and/or antimicrobial activity) [Peptide 1T-201] | S. sanguinis
24 | 1T-207 (SPLEKYGTGSMTALTFLLGCCLLVLSKKSR; Peptide with targeting and/or antimicrobial activity) [Peptide 1T-207] | F. nucleatum; also recorded: S. sanguinis
25 | 1T-215 (VCFKDISVFLSPFRGQEVLFCGKAKHSLIYVIGT; Peptide with targeting and/or antimicrobial activity) [Peptide 1T-215] | S. sanguinis
26 | 1T-216 (FFLNVIAIRIPHF; Peptide with targeting and/or antimicrobial activity) [Peptide 1T-216] | S. sanguinis
27 | 1T-217 (MLSNVLSRSVVSPNVDIPNSMVILSPLLISISNYH; Peptide with targeting and/or antimicrobial activity) [Peptide 1T-217] | F. nucleatum; also recorded: S. sanguinis
28 | 1T-218 (KLIFAALGLVFLLIGLRDSRSK; Peptide with targeting and/or antimicrobial activity) [Peptide 1T-218] | F. nucleatum; also recorded: S. sanguinis
29 | 1T-219 (RNINVSATFITEKSLV; Peptide with targeting and/or antimicrobial activity) [Peptide 1T-219] | S. sanguinis
30 | 1T-222 (RIEASLISAIMFSMFNAIVKFLQK; Peptide with targeting and/or antimicrobial activity) [Peptide 1T-222] | F. nucleatum; also recorded: S. sanguinis
31 | 1T-237 (EDPVPNHFTLRRNKKEKPSKS; Peptide with targeting and/or antimicrobial activity) [Peptide 1T-237] | S. sanguinis
32 | 1T-239 (ADDLLNKRLTDLIMENAETVKTIDLDNSD; Peptide with targeting and/or antimicrobial activity) [Peptide 1T-239] | A. naeslundii; also recorded: S. gordonii; also recorded: S. mitis; also recorded: S. mutans; also recorded: S. oralis; also recorded: S. sanguinis
33 | 1T-242 (KQVQNTTLIICGTVLLGILFKSYLKSQKSV; Peptide with targeting and/or antimicrobial activity) [Peptide 1T-242] | F. nucleatum; also recorded: S. sanguinis
34 | 1T-248 (IGGALNSCG; Peptide with targeting and/or antimicrobial activity) [Peptide 1T-248] | S. sanguinis
35 | 1T-249 (VFSVLKHTTWPTRKQSWHDFISILEYSAFFALVIFIFDKLLTLGLAELLKRF; Peptide with targeting and/or antimicrobial activity) [Peptide 1T-249] | F. nucleatum; also recorded: S. sanguinis
36 | 1T-250 (LVQGDTILIENHVGTPVKDDGKDCLIIREADVLAVVND; Peptide with targeting and/or antimicrobial activity) [Peptide 1T-250] | S. mitis; also recorded: S. mutans; also recorded: S. oralis
37 | 1T-252 (MKKNLKRFYALVLGFIIGCLFVSILIFIGY; Peptide with targeting and/or antimicrobial activity) [Peptide 1T-252] | F. nucleatum; also recorded: S. sanguinis
38 | 1T-256 (KGKSLMPLLKQINQWGKLYL; Peptide with targeting and/or antimicrobial activity) [Peptide 1T-256] | S. sanguinis
39 | 1T-258 (TINIDDKVLDYLKKINSKAITIDLIGCAS; Peptide with targeting and/or antimicrobial activity) [Peptide 1T-258] | A. naeslundii; also recorded: F. nucleatum; also recorded: P. gingivalis; also recorded: T. denticola; also recorded: S. mitis; also recorded: S. mutans; also recorded: S. oralis
40 | 1T-259 (EKLKKILLKLAVCGKAWYTL; Peptide with targeting and/or antimicrobial activity) [Peptide 1T-259] | F. nucleatum; also recorded: P. gingivalis; also recorded: T. denticola; also recorded: S. mitis; also recorded: S. mutans; also recorded: S. oralis; also recorded: S. sanguinis
41 | 1T-260 (NILYFIHDENQWEPQKAEIFRGSIKHCAWLSS; Peptide with targeting and/or antimicrobial activity) [Peptide 1T-260] | A. naeslundii; also recorded: P. gingivalis; also recorded: S. epidermidis; also recorded: S. gordonii; also recorded: S. mitis; also recorded: S. mutans; also recorded: S. oralis; also recorded: S. sanguinis
42 | 1T-261 (SFEKNKIENNLKIAQAYIYIKPKPRICQA; Peptide with targeting and/or antimicrobial activity) [Peptide 1T-261] | F. nucleatum; also recorded: S. mutans; also recorded: S. oralis; also recorded: S. sanguinis
43 | 1T-264 (LEGKFYMAEDFDKTPECFKDYV; Peptide with targeting and/or antimicrobial activity) [Peptide 1T-264] | S. sanguinis
